Assay results from US10537552B2, “Substituted 5-hydroxyoxindoles and their use as analgesics and fever reducers” (CARAFE DRUG INNOVATION, LLC, priority 2015, dated 2020).

How the values were obtained:
[1] = test system: acetic acid-induced behavioral response; assay: abdominal constriction response test (acetic acid), Example 9; type: in vivo; details: B6C3F1 mice, FIG. 1; for inhibition of acetic acid-induced behavioral response: p.o. 30 min before i.p. 0.9% acetic acid, DMSO/2% methylcellulose, acetaminophen 75 to 300 mg/kg
Experimental: The example was performed to compare the antinociception (animal equivalent of analgesia) produced by the oral administration of 5-hydroxyoxindole vs acetaminophen in a standard model in mice. Male B6C3F1 mice (Taconic), 8-10 weeks of age were utilized. The mice were received at the facility at least one week prior to testing and housed in standard polycarbonate cages with filter tops. The experiments were done in accordance with the guidelines of the National Institutes of Health (NIH) and with the guidelines of the Committee for Research and Ethical Issues of the IASP (International Association for the Study of Pain) and were approved by the Institutional Animal Care and Use Committee (IACUC) of Taconic Laboratories. Four or five animals were housed per cage and food and water were provided ad libitum. Prior to initiation of the study, the mice were examined to assure adequate health and suitability. They were maintained on a 12 h/12 h light/dark cycle and room temperature was maintained between 20 and 23° C. with a relative humidity maintained between 30 and 70%. All compounds were tested in naïve animals. All compounds were administered orally 10 mL/kg, with a 30 minute pretreatment time. Each compound was dissolved in DMSO as a stock solution and mixed with methylcellulose (2%) before testing. Each compound was initially tested in five mice at a dose of 300 mg/kg in the abdominal constriction response test (Collier, British Journal of Pharmacology and Chemotherapy 32(2): 295-310, 1968). Based upon the results of the initial test, the dose-response relationship for each active compound was determined by measuring the level of analgesia produced by at least 3 escalating doses of the test compound. […] Vehicle or test compound was administered p.o. (per os) 30 min prior to an intraperitoneal (i.p.) injection of 0.9% acetic acid (10 mL/kg) and the number of responses (stretching of the hind limbs accompanied by a contraction of the abdominal muscles) to the acetic acid injection were counted over the subsequent 30 min period. […]

[2] = test system: acetic acid-induced writhing responses; assay: acetic acid writhing test (abdominal irritant test), Example 10; type: in vivo, C57/B16 mice; details: C57/B16 mice
Experimental: This example compares the antinociception (animal equivalent of analgesia) produced by the oral administration of 5-hydroxy-7-methyloxindole vs. acetaminophen. Initial studies were performed using 10% DMSO/Cremophor™ as the vehicle. To enable a comparison with other datasets, 5-hydroxy-7-methyloxindole was subsequently tested using 6% Tween 20® reagent as the vehicle.
Male C57/B16 mice (Taconic), 8 weeks of age, were used in this study. The mice were received at Drexel University at least one week prior to testing and housed in standard polycarbonate cages with filter tops. Experiments were done in accordance with the guidelines of the National Institutes of Health and with the guidelines of the Committee for Research and Ethical Issues of IASP and were approved by the Animal Care and Use Committee of Drexel University College of Medicine. Four to five animals were housed per cage and food and water were provided ad libitum. Prior to initiation of the study, the animals were examined to assure adequate health and suitability. Mice were maintained on a 12/12 light/dark cycle and room temperature was maintained between 20 and 23° C. with a relative humidity maintained between 30% and 70%.
Compounds were administered orally 10 mL/kg, with a 30 minute pretreatment time. All compounds were tested in naïve animals. Each compound was dissolved in DMSO as a stock solution and mixed with Cremophor™ (1:1 v/v) before testing. The mixed solutions were diluted 1:4 with sterile water (the final concentration of DMSO/Cremophor™ reagent was 10%) immediately before administration to maximize the amount of compound in solution and improve the uniformity of any compound substance remaining in suspension. It is possible that some of the drug was in suspension at the time of administration. Each compound was initially tested in 5 mice at a dose of 300 mg/kg in the writhing test to assess their ability to alleviate abdominal pain. Based on the results of the initial test, the dose-response relationship for each active compound was determined by measuring the level of analgesia produced by at least 3 escalating doses of the test compound. The measurement of inhibition of writhing for acetaminophen and 5-hydroxy-7-methyloxindole were repeated using 6% Tween® 20 reagent as the vehicle. In this case, both compounds were clearly in suspension when administered to the animals.
A modified version of the standard abdominal irritant test was used to assess analgesia. Mice were habituated for 1 h in a transparent test box (5×5×10 inches) before any injections. Vehicle or test compound was administered p.o. (per os) 30 min prior to an intraperitoneal (i.p.) injection of 0.6% acetic acid (10 mL/kg) and the number of writhing responses (stretching of the hind limbs accompanied by a contraction of the abdominal muscles) to the acetic acid injection were counted over the subsequent 30 min period. The mice from each cage were randomly assigned to the dosing groups and the mice from each group were injected in a random order.
The one-way ANOVA was used to determine significant difference from the vehicle control treated animal. Dose response data for 5-hydroxy-7-methyloxindole was fit by non-linear regression analysis to a logit model to provide an estimate of ED50.

[3] = test system: liver (acute liver toxicity); assay: liver histology (pathohistological examination); type: in vivo, C57BL/6 mice; details: mouse, in vivo
Experimental: In all experiments, mice were fasted overnight and then allocated randomly to receive either acetaminophen or equimolar dose of 5-hydroxy-7-methyloxindole by the intragastric route. Food was returned 4 h after the treatment. The two experimental groups were:
(a) Lower-dose group: Mice were administered acetaminophen (300 mg/kg) or 5-hydroxy-7-methyloxindole (324 mg/kg). After 7 h, the mice were sacrificed and liver and blood samples were taken for the analysis.
Seven hours after receiving the second injection, mice were sacrificed and liver and blood samples were taken for analysis.
A portion of the liver lobes of each mouse was fixed in 4% buffered paraformaldehyde, dehydrated in increasing concentrations of ethanol, and embedded in paraffin. Then, sections of tissue were cut to […] thickness using a rotary microtome, stained with hematoxylin and eosin, and then analyzed under a microscope.

| Structure (SMILES) | inhibition of acetic acid-induced behavioral response [1] | inhibition of acetic acid-induced response (writhing) ([2]; p.o. 30 min before i.p. 0.6% acetic acid, 10% DMSO/Cremophor vehicle, 30 to 300 mg/kg, FIG. 2, 3) | inhibition of acetic acid-induced response (writhing) ([2]; p.o., 6% Tween 20 vehicle (suspension), 100 and 300 mg/kg, FIG. 5, 6) | liver injury on pathohistological examination [3] | dose needed for same analgesic efficacy as acetaminophen ([1]; p.o.) |
| --- | --- | --- | --- | --- | --- |
| CC(=O)Nc1ccc(O)cc1 [acetaminophen, N-(4-Hydroxyphenyl)acetamide, reference compound] | robust and dose-related inhibition | robust and dose-related inhibition | Only a 300 mg/kg dose produced significant inhibition | acute liver injury in all of the mice | – |
| O=C1Cc2cc(O)ccc2N1 [Example 5-HI, 5-hydroxyoxindole] | statistically significant, dose-related inhibition | – | – | – | higher doses of 5-HI were required |
